Assay results from US20230339890A1, “AMINO ALCOHOL COMPOUNDS AND USES THEREOF” (Kineta, Inc., priority 2020, published 2023).

tested on: Erg11; test: HPLC analysis of lanosterol and ergosterol in wild-type yeast cultures; assay type: cell-based; details: wild-type yeast treated for eight hours
Experimental: (§1) (FIG. 1A) Structure of the Erg11 inhibitor and anti-fungal, fluconazole. […] A 2-fold serial dilution of fluconazole was applied to TDP-43-expressing yeast for 24 hours prior to analysis. (FIG. 1C) Wild-type yeast cultures were treated with fluconazole for eight hours prior to HPLC analysis for lanosterol and ergosterol. Data are expressed as the area under the curve (AUC) normalized to cell mass based on optical density of cultures at 600 nm.
Fluconazole is an antifungal known to inhibit Erg11, the yeast lanosterol 14-alpha demethylase (FIG. 1B). […] CYP51A1 has also been known as lanosterol 14-alpha demethylase, which describes its function in removing the 14-alpha-methyl group from lanosterol to generate 4,4-dimethylcholesta-8(9), 14, 24-trien-3β-ol, which is a critical step in the cholesterol biosynthetic pathway.

Compound | ergosterol (AUC normalized to cell mass) | lanosterol (AUC normalized to cell mass)
OC(Cn1cncn1)(Cn1cncn1)c1ccc(F)cc1F [fluconazole] | reduces ergosterol | increase in the Erg11 substrate, lanosterol

tested on: TDP-43-expressing yeast; test: Yeast TDP-43 model viability (resazurin-reduction endpoint); assay type: cell-based; details: 2-fold serial dilution applied for 24 hours
Experimental: as §1
The toxic gain of function features of TDP-43 can be faithfully recapitulated in the simple model organism, budding yeast, where the protein also localizes to stress granules. […] The yeast model thus provides a robust cell-based screening platform for small molecules capable of ameliorating toxicity. To validate compounds from such phenotypic screens, it is imperative to test compounds in a mammalian neuronal context. In an effort to develop TDP-43-related mammalian models of neuron loss that occurs in ALS and FTD, primary cultures of rat cortical neurons were transfected with human wild type or Q331K mutant TDP-43. These cells were compared to cells which received an empty expression vector control. […] In the experiments described in this example, this model system is used to interrogate new therapeutic approaches to ameliorate TDP-43 toxicity.
Fluconazole is an antifungal known to inhibit Erg11, the yeast lanosterol 14-alpha demethylase (FIG. 1B). […]

Compound | viability of TDP-43-expressing yeast
OC(Cn1cncn1)(Cn1cncn1)c1ccc(F)cc1F [fluconazole] | rescues viability

same assay, conditions: 2-fold serial dilution applied for 24 hours, listed as Fluconazole

Compound | viability of TDP-43-expressing yeast
OC(Cn1cncn1)(Cn1cncn1)c1ccc(F)cc1F [fluconazole] | restored viability

target: Recombinant human CYP51A1 (lanosterol-14a-demethylase) (Homo sapiens (Human), UniProt Q16850); test: Inhibition of CYP51A1, fluorescent substrate BOMCC; assay type: biochemical; details: recombinant human CYP51A1 coexpressed with CYP reductase in bacterial membranes, 8-point concentration-response, read-out: CYP51 IC50
Description: Method: Recombinant human CYP51A1 (lanosterol-14a-demethylase) enzyme was coexpressed with CYP reductase in bacterial membranes and the fluorescent substrate BOMCC (a nonnatural substrate that causes increases in fluorescence upon CYP51A1-dependent demethylation) was used to obtain 8-point dose concentration-response curves for each compound.

Sequence of Recombinant human CYP51A1 (lanosterol-14a-demethylase) (Q16850 whole entry): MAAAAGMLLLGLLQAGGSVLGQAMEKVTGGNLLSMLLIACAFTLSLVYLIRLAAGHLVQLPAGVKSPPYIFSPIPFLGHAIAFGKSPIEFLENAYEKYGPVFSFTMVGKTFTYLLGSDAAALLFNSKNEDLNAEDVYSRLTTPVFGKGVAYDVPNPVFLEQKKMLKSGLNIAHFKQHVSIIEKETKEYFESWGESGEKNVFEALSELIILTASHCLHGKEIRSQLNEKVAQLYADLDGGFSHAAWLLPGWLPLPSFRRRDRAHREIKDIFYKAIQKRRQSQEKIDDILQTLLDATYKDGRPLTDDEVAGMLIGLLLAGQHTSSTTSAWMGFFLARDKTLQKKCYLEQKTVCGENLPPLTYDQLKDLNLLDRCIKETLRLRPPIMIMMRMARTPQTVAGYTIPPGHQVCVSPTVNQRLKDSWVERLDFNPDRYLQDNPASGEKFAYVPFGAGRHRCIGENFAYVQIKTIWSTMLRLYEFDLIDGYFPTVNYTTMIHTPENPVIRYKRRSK

IC50 [nM] | Compound
≤ 100 | CCCN(C[C@@H](O)c1cccnc1)C(=O)C1Cc2cc(Cl)c(Br)cc2C1 (stereo partly drawn) [compound 131, 5-bromo-6-chloro-N-[(2S)-2-hydroxy-2-(3-pyridyl)ethyl]-N-propyl-indane-2-carboxamide]
> 1000 | CCCN(C[C@@H](O)c1cccnc1)C(=O)C(C)c1ccc(C(F)(F)F)nc1 (stereo partly drawn) [compound 132, N-[(2S)-2-hydroxy-2-(3-pyridyl)ethyl]-N-propyl-2-[6-(trifluoromethyl)-3-pyridyl]propanamide]
100 to 1000 | CCCN(C[C@@H](O)c1cccnc1)C(=O)C1Cc2cc(C#N)c(C#N)cc2C1 [compound 133, 5,6-dicyano-N-[(2S)-2-hydroxy-2-(3-pyridyl)ethyl]-N-propyl-indane-2-carboxamide]
≤ 100 | CCCN(C[C@@H](O)c1cccnc1)C(=O)C1Cc2cc(Cl)c(C#N)cc2C1 (stereo partly drawn) [compound 134, 5-chloro-6-cyano-N-[(2S)-2-hydroxy-2-(3-pyridyl)ethyl]-N-propyl-indane-2-carboxamide]
≤ 100 | CCCN(C[C@@H](O)c1cccnc1)C(=O)N1Cc2cc(Cl)c(Br)cc2C1 [compound 135, 5-bromo-6-chloro-N-[(2S)-2-hydroxy-2-(3-pyridyl)ethyl]-N-propyl-isoindoline-2-carboxamide]
≤ 100 | CCCN(CC(O)c1cnccc1N)C(=O)Cc1ccc(C(F)(F)F)nc1 (stereo not shown) [compound 136, N-[2-(4-amino-3-pyridyl)-2-hydroxyethyl]-N-propyl-2-[6-(trifluoromethyl)-3-pyridyl]acetamide]
≤ 100 | CC(C)(C)OC(=O)N(CCc1ccc2ccccc2c1)CC(O)c1cccnc1 (stereo not shown) [compound 137, Tert-butyl N-[2-hydroxy-2-(3-pyridyl)ethyl]-N-[2-(2-naphthyl)ethyl]carba mate]
100 to 1000 | CC(C)(C)OC(=O)N(CCc1ccc(Cl)c(Cl)c1)CC(O)c1cccnc1 (stereo not shown) [compound 138, Tert-butyl N-[2-(3,4-dichlorophenyl)ethyl] -N-[2-hydroxy-2-(3-pyridyl)ethyl]carbam ate]
≤ 100 | CC(C)(C)OC(=O)NCCCCCN(CC(O)c1cccnc1)C(=O)Cc1ccc(Cl)c(Cl)c1 (stereo not shown) [compound 139, tert-butyl N-[5-[[2-(3,4-dichlorophenyl)acetyl]-[2-hydroxy-2-(3-pyridyl)ethyl]amino]pentyl]carbamate]
≤ 100 | CC(C)(C)OC(=O)NCCCN(C[C@@H](O)c1cccnc1)C(=O)Cc1ccc(C(F)(F)F)nc1 [compound 140, tert-butyl N-[3-[[(2S)-2-hydroxy-2-(3-pyridyl)ethyl]-[2-[6-(trifluoromethyl)-3-pyridyl]acetyl]amino]propyl]carbamate]
≤ 100 | CC(C)(C)OC(=O)NCCCCCN(C[C@@H](O)c1cccnc1)C(=O)Cc1ccc(C(F)(F)F)nc1 [compound 141, tert-butyl N-[5-[[(2S)-2-hydroxy-2-(3-pyridyl)ethyl]-[2-[6-(trifluoromethyl)-3-pyridyl]acetyl]amino]pentyl]carbamate]
≤ 100 | CC(C)(C)OC(=O)NCCN(C[C@@H](O)c1cccnc1)C(=O)Cc1ccc(C(F)(F)F)nc1 [compound 143, tert-butyl N-[2-[[(2S)-2-hydroxy-2-(3-pyridyl)ethyl]-[2-[6-(trifluoromethyl)-3-pyridyl]acetyl]amino]ethyl]carbamate]
100 to 1000 | CC(C)(C)OC(=O)NC1CCC(CN(C[C@@H](O)c2cccnc2)C(=O)Cc2ccc(C(F)(F)F)nc2)CC1 (stereo partly drawn) [compound 145, tert-butyl N-[4-[[[(2S)-2-hydroxy-2-(3-pyridyl)ethyl]-[2-[6-(trifluoromethyl)-3-pyridyl]acetyl]amino]methyl]cyclohexyl] carbamate]
≤ 100 | CC(C)(C)OC(=O)NC1CCC(CN(C[C@@H](O)c2cccnc2)C(=O)Cc2ccc(C(F)(F)F)nc2)CC1 (stereo partly drawn) [compound 146, tert-butyl N-[4-[[[(2S)-2-hydroxy-2-(3-pyridyl)ethyl]-[2-[6-(trifluoromethyl)-3-pyridyl]acetyl]amino]methyl]cyclohexyl] carbamate]
≤ 100 | CCCN(C[C@H](O)c1cccnc1)C(=O)Cc1ccc2ccccc2c1 [compound 147, N-[(2R)-2-hydroxy-2-(3-pyridyl)ethyl]-2-(2-naphthyl)-N-propyl-acetamide]
